Source: ChEMBL document CHEMBL5360657, “Discovery of the TLR7/8 Antagonist MHV370 for Treatment of Systemic Autoimmune Diseases” (ACS Med Chem Lett, 2023)
pIC50: −log10 of the molar value.

Assays:
[1] = target: Toll-like receptor 7 (Mus musculus) (UniProt P58681); assay: In vivo antagonist activity against TLR7 in po dosed mouse assessed as suppression of TNF level measured at 3 hrs by LC-MS/MS analysis; conditions: dose 1-30 mg/kg
Toll-like receptor 4 [2] = target: T1, Toll-like receptor 4 (Mus musculus, UniProt Q9QUK6); assay: Antagonist activity at TLR4 in mouse Splenocyte assessed as reduction IL-6 level measured after 20 hrs by Spectramax M5 method; format: cell-based
T1 sequence (Q9QUK6 whole entry): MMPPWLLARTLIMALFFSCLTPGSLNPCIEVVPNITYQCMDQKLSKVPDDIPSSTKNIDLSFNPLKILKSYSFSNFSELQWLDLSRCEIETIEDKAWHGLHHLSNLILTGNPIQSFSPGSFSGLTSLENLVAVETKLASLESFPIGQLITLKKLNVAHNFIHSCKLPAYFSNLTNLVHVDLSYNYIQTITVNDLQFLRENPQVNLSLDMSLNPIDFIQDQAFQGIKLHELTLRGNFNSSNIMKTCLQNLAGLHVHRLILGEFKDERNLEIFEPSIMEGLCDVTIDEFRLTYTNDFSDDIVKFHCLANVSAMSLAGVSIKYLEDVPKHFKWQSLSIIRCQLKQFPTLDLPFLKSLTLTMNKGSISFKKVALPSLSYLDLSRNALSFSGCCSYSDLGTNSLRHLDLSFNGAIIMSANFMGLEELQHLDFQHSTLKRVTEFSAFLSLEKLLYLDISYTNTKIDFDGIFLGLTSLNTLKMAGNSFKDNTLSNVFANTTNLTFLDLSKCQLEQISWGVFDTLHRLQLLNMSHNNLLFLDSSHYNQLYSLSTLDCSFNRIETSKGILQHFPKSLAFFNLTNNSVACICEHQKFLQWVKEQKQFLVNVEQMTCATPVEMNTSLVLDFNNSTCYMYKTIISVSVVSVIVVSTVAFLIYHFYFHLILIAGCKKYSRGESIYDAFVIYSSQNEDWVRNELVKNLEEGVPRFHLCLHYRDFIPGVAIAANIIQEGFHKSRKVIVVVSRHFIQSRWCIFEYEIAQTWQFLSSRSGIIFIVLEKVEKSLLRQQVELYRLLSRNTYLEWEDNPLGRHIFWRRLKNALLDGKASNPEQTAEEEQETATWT

Toll-like receptor 7 = target: T2, Toll-like receptor 7 (Homo sapiens, UniProt Q9NYK1); assay: Antagonist activity at TLR7 in human Whole blood cell assessed as reduction in IFN-alpha level measured after 30 mins; format: tissue-based
T2 sequence (Q9NYK1 whole entry): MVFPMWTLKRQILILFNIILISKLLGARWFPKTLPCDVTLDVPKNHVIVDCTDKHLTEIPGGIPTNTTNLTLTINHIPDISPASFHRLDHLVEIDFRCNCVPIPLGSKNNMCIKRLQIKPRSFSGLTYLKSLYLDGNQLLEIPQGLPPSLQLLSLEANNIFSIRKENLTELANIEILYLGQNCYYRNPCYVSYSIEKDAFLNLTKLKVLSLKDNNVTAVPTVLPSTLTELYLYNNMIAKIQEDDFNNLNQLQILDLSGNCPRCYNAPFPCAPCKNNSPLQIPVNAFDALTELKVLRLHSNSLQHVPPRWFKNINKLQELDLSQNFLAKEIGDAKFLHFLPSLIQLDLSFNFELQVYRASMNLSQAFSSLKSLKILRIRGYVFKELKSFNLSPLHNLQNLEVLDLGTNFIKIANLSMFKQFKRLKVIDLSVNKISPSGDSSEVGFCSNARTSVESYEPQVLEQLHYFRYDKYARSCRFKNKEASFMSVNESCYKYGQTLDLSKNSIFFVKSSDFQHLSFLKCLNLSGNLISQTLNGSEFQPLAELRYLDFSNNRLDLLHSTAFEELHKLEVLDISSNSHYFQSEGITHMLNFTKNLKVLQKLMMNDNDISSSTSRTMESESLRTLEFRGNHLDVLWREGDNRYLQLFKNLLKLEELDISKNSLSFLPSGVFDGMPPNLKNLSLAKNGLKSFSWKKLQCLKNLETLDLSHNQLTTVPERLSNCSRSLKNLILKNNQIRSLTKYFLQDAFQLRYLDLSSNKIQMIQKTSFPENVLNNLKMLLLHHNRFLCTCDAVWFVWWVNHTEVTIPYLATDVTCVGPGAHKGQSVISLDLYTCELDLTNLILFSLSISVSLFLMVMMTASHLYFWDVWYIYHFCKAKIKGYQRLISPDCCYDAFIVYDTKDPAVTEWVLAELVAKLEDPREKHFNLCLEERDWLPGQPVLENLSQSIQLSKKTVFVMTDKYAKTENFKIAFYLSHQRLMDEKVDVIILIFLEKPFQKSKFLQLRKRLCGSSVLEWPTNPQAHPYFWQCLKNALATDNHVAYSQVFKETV

Toll-like receptor 4 [3] = target: T3, Toll-like receptor 4 (Homo sapiens, UniProt O00206); assay: Antagonist activity at TLR4 in human Whole blood cell assessed as reduction in IL-6 level measured after 30 mins; format: tissue-based
Toll-like receptor 4 [4] = target: T3, Toll-like receptor 4; assay: Antagonist activity at TLR4 in human PBMC cells assessed as reduction in IL-6 level measured after 20 hrs by AlphaLISA assay; format: cell-based
[5] = target: Toll-like receptor 7 (Mus musculus) (UniProt P58681); assay: In vivo antagonist activity against TLR7 in mouse assessed as inhibition of IL-6 level at 10 mg/kg, po measured after 2 hrs by LC-MS/MS analysis relative to control
[6] = Efflux ratio of permeability basolateral to apical over apical to basolateral side in human Caco-2 cells; format: ADME, cell-based
[7] = target: T4, Nuclear receptor subfamily 1 group I member 2 (Homo sapiens, UniProt O75469); assay: Induction of PXR (unknown origin) relative to control
T4 sequence (O75469 whole entry): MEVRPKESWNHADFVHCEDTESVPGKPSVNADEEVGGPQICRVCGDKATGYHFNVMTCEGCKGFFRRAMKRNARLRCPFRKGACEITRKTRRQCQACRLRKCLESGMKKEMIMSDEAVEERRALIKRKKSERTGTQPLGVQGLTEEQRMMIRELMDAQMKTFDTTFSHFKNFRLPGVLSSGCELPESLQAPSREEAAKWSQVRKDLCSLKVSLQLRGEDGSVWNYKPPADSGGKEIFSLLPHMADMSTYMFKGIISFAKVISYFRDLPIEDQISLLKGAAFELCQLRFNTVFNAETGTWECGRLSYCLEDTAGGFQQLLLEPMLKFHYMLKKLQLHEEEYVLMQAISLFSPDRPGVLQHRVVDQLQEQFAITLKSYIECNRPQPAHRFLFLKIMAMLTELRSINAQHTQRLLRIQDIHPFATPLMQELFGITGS

[8] = Volume of distribution at steady state in mouse at 3 mg/kg, iv; format: ADME, organism-based; conditions: in vivo, read-out: Vdss

T3 sequence (O00206 whole entry): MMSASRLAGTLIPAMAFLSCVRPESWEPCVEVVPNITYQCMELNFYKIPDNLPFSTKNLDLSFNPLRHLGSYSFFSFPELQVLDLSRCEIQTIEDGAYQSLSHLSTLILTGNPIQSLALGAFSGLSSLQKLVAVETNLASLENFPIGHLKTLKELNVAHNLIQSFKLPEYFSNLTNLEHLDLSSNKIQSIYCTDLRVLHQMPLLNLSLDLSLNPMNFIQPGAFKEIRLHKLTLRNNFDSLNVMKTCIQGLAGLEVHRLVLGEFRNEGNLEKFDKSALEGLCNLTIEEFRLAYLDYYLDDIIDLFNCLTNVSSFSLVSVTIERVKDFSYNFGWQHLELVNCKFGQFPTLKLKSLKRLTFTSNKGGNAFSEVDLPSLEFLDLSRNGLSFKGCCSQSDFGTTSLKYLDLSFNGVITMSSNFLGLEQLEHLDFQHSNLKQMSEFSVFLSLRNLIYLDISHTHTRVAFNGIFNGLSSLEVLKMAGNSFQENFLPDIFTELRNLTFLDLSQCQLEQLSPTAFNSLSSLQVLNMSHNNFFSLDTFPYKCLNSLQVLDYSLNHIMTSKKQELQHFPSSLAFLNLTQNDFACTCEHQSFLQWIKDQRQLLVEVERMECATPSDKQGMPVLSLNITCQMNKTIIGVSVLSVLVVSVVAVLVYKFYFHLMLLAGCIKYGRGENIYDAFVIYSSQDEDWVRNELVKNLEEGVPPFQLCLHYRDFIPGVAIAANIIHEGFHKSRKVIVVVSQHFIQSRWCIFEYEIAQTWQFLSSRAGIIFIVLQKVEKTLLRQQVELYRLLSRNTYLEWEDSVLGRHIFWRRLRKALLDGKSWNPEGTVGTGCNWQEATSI

Structure (SMILES)	Activity [1]	pIC50 (Toll-like receptor 4 [2])	pIC50 (Toll-like receptor 7)	pIC50 (Toll-like receptor 4 [3])	pIC50 (Toll-like receptor 4 [4])	inhibition in vivo at 10 mg/kg [5] [%]	efflux ratio [6]	Activity [7] [%]	Vd [8] [L/kg]
Cc1cc(N2CCc3c(c(C)nn3CC34CCC(NC(=O)[C@@H]5COCCN5)(CC3)CC4)C2)c2cnn(C)c2n1 [MHV-370]	Dose-Dependent Effect	< 5.00	8.15	< 5.00	< 5.00	~100	–	–	–
Cc1cc(N2CCc3c(c(C)nn3CC34CCC(N)(CC3)CC4)C2)c2cnn(C)c2n1	–	–	–	–	–	–	7.5	7.9	4.1
